Results as given in PubChem BioAssay AID330 (DTP/NCI, 2004).
“And” between values parts separate entries of the source, which are not always exact repeats. Equal values may be shown once. Toxic doses and inconclusive results are not listed. The calls were made as follows: active = survival T/C of 150% or more; inactive = T/C below 125% in these data.

System: P388 leukemia ip, CD2F1 mice, survival T/C
Test: NCI In Vivo Anticancer Drug Screen. Data for tumor model P388 Leukemia (intraperitoneal) in CD2F1 (CDF1) mice
Conditions: endpoint: median survival time, higher = longer survival
How it was run: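 Mice carrying the transplanted tumor received test compound or vehicle. Survival was recorded in each group, and the value is the treated-group measurement divided by that of the vehicle-treated control group.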

[1] = dose: 100.0 mg/kg/injection, schedule: Q04DX003 (ip), vehicle: Klucel (hydroxypropylcellulose) (HPC)

Measured: T/C

CCCN=Cc1cc(Cc2ccc(O)c(C=NCCC)c2)ccc1O
inactive: dose: 50.0 mg/kg/injection, schedule: Q04DX003 (ip), vehicle: Klucel (hydroxypropylcellulose) (HPC) 123 % of control | [1] 104 % of control and 119 % of control

Nc1ncnc2c1nc(Br)n2C1OC2COP(=O)(O)OC2C1O (stereo unspecified)
inactive: dose: 50.0 mg/kg/injection, schedule: Q01DX009 (ip), vehicle: suspension in saline 100 % of control | dose: 100.0 mg/kg/injection, schedule: Q01DX009 (ip), vehicle: suspension in saline 96 % of control | dose: 200.0 mg/kg/injection, schedule: Q01DX009 (ip), vehicle: suspension in saline 100 % of control

COc1ccc(N(N=O)c2c(C)cc(C)cc2C)c(C(=O)O)c1
inactive: dose: 50.0 mg/kg/injection, schedule: Q01DX005 (ip), vehicle: Klucel (hydroxypropylcellulose) (HPC) 96 % of control | dose: 100.0 mg/kg/injection, schedule: Q01DX005 (ip), vehicle: Klucel (hydroxypropylcellulose) (HPC) 96 % of control | dose: 200.0 mg/kg/injection, schedule: Q01DX005 (ip), vehicle: Klucel (hydroxypropylcellulose) (HPC) 98 % of control

CC1CC(C)(C)C(c2ccccc2)C(=O)O1 (stereo unspecified)
inactive: [1] 106 % of control | dose: 200.0 mg/kg/injection, schedule: Q04DX003 (ip), vehicle: Klucel (hydroxypropylcellulose) (HPC) 100 % of control | dose: 400.0 mg/kg/injection, schedule: Q04DX003 (ip), vehicle: Klucel (hydroxypropylcellulose) (HPC) 114 % of control

Oc1ccccc1
inactive: dose: 0.12 % in 0.5 ml injection vol, schedule: Q01DX009 (ip), vehicle: water 103 % of control | dose: 0.25 % in 0.5 ml injection vol, schedule: Q01DX009 (ip), vehicle: water 103 % of control | dose: 0.5 % in 0.5 ml injection vol, schedule: Q01DX009 (ip), vehicle: water 111 % of control | dose: 1.0 % in 0.5 ml injection vol, schedule: Q01DX009 (ip), vehicle: water 118 % of control

COc1ccc(C(=O)CC(C(=O)O)c2ccc(OC)cc2)cc1 (stereo unspecified)
inactive: dose: 100.0 mg/kg/injection, schedule: Q04DX003 (ip), vehicle: saline with Tween-80 102 % of control | dose: 200.0 mg/kg/injection, schedule: Q04DX003 (ip), vehicle: saline with Tween-80 94 % of control | dose: 400.0 mg/kg/injection, schedule: Q04DX003 (ip), vehicle: saline with Tween-80 99 % of control

C=C(C)C1=CC(=O)C2CCCC(C)C2(C)C1OC(C)=O (stereo unspecified)
inactive: dose: 75.0 mg/kg/injection, schedule: Q01DX001 (ip), vehicle: Klucel (hydroxypropylcellulose) (HPC) 100 % of control | dose: 150.0 mg/kg/injection, schedule: Q01DX001 (ip), vehicle: Klucel (hydroxypropylcellulose) (HPC) 106 % of control | dose: 300.0 mg/kg/injection, schedule: Q01DX001 (ip), vehicle: Klucel (hydroxypropylcellulose) (HPC) 107 % of control
